The data set is described as follows: recombinant UMI read abundance after kanamycin selection (control-corrected) (log10(CPM+1)); higher = more efficient recombination; extreme values may be limits of the assay; sequences stand for … in AGTGCAGAGAAAATCGGCCAGTTTTCTCTGCCTGCAGTCCGCATGCCGTGGGACCCCTTGGGTTCTAACCTGTTGCCTAGATTTATGCAGCGGACTGCCTTTCTCCCAAAGTGATAAACCGG…AGGTTGGTTTCACT; site = the 11-nt donor. The essentials:
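Under IPTG (0.07 mM) plus kanamycin, or without selection, Escherichia coli carrying a UMI-tagged donor and donor-binding-loop pair library and a target plasmid for the IS621 bridge recombinase were plated in two replicates. Recombinant UMIs were PCR-amplified across the donor–target junction and sequenced. Counts were converted to CPM, averaged over replicates, scaled by control-derived factors and reported as log10(CPM+1).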
With “GGTTAGACATGGACCGGTTTTCCCGGTAATCCGTATTTGAG (site CGTTAGACTCT)”, the “recombinant UMI read abundance (log10)” value came out at 0.202. The same measure for “GGTTAGACATGGACCGGTTTTCCCGGTAATCCGTATTTGAG (site GGTTAGACTCT)”: 1.12; for “GGTTAGACATGGACCGGTTTTCCCGGTAATCCGTATTTGAG (site TGTTAGACTCT)”: 0.194.

“GGTTGGACATGGACCGGTTTTCCCGGTAATCCGTATTTGAC (site GATTGGACTGT)”: the “recombinant UMI read abundance (log10)” value was found to be 0. Under “GGTTGGACATGGACCGGTTTTCCCGGTAATCCGTATTTGAC (site GCTTGGACTGT)” stands 0; under “GGTTGGACATGGACCGGTTTTCCCGGTAATCCGTATTTGAC (site GGTTGGACTGT)”, 1.49; under “GGTTGGACATGGACCGGTTTTCCCGGTAATCCGTATTTGAC (site GTTTGGACTGT)”, 0. As to “GGTTTATCATGGACCGGTTTTCCCGGTAATCCGTATTTGAC (site GGTTTATCTGT)”, the “recombinant UMI read abundance (log10)” value was found to be 0.699.

On to “GTAAACCCATGGACCGGTTTTCCCGGTAATCCGTATTTGAT (site GTAAACCCTAT)”, for which the “recombinant UMI read abundance (log10)” value was 1.45. Under “GTAAGATCATGGACCGGTTTTCCCGGTAATCCGTATTTGGC (site GTAAGATCTGC)” stands 2.74. “GTAAGCACATGGACCGGTTTTCCCGGTAATCCGTATTTGTA (site GTAAGCACTTA)”: the “recombinant UMI read abundance (log10)” value worked out at 2.03. For “GTAAGCACATGGACCGGTTTTCCCGGTAATCCGTATTTGTA (site GTACGCACTTA)”, the “recombinant UMI read abundance (log10)” value came to 0.0491.

Take “GTAAGCACATGGACCGGTTTTCCCGGTAATCCGTATTTGTA (site GTAGGCACTTA)”: the “recombinant UMI read abundance (log10)” value amounted to 0.614. Turning to “GTAAGCACATGGACCGGTTTTCCCGGTAATCCGTATTTGTA (site GTATGCACTTA)”, the “recombinant UMI read abundance (log10)” value is 0.495. “GTAAGGCCATGGACCGGTTTTCCCGGTAATCCGTATTTGAC (site ATAAGGCCTGT)”: the “recombinant UMI read abundance (log10)” value was determined as 0. In the case of “GTAAGGCCATGGACCGGTTTTCCCGGTAATCCGTATTTGAC (site CTAAGGCCTGT)”, the “recombinant UMI read abundance (log10)” value came out at 0. “GTAAGGCCATGGACCGGTTTTCCCGGTAATCCGTATTTGAC (site GTAAGGCCTGT)”: the “recombinant UMI read abundance (log10)” value stood at 0. Take “GTAAGGCCATGGACCGGTTTTCCCGGTAATCCGTATTTGAC (site TTAAGGCCTGT)”: the “recombinant UMI read abundance (log10)” value was 0. In the case of “GTAATCTCATGGACCGGTTTTCCCGGTAATCCGTATTTGAC (site GTAATCTCTGT)”, the “recombinant UMI read abundance (log10)” value amounted to 2.51. For the sequence “GTAATTGCATGGACCGGTTTTCCCGGTAATCCGTATTTGTA (site GTAATTGCTTA)”, the “recombinant UMI read abundance (log10)” value was 2.57.

Turning to “GTACAGTCATGGACCGGTTTTCCCGGTAATCCGTATTTGAT (site GTACAGTCTAT)”, the “recombinant UMI read abundance (log10)” value was 2.73. For “GTACGAGCATGGACCGGTTTTCCCGGTAATCCGTATTTGTG (site GTACGAGCTCA)”, the “recombinant UMI read abundance (log10)” value turned out to be 1.39.

Consider “GTACTATCATGGACCGGTTTTCCCGGTAATCCGTATTTGGC (site GTACTATCTGC)”, for which the “recombinant UMI read abundance (log10)” value was 3.19.

For the sequence “GTACTTCCATGGACCGGTTTTCCCGGTAATCCGTATTTGTC (site GTACTTCCTGA)”, the “recombinant UMI read abundance (log10)” value worked out at 1.93. As for “GTAGAACCATGGACCGGTTTTCCCGGTAATCCGTATTTGCA (site GTAGAACCTTG)”, the “recombinant UMI read abundance (log10)” value turned out to be 0.

Turning to “GTAGAGGCATGGACCGGTTTTCCCGGTAATCCGTATTTGTG (site GTAGAGGCTCA)”, the “recombinant UMI read abundance (log10)” value was determined as 1.58. Regarding “GTAGAGGCATGGACCGGTTTTCCCGGTAATCCGTATTTGTG (site GTCGAGGCTCA)”, the “recombinant UMI read abundance (log10)” value turned out to be 0.361.

Turning to “GTAGAGGCATGGACCGGTTTTCCCGGTAATCCGTATTTGTG (site GTGGAGGCTCA)”, the “recombinant UMI read abundance (log10)” value stood at 0.704. Regarding “GTAGAGGCATGGACCGGTTTTCCCGGTAATCCGTATTTGTG (site GTTGAGGCTCA)”, the “recombinant UMI read abundance (log10)” value worked out at 0.247. “GTAGCAACATGGACCGGTTTTCCCGGTAATCCGTATTTGTA (site GTAGCAACTTA)”: the “recombinant UMI read abundance (log10)” value amounted to 2.18. With “GTAGGCTCATGGACCGGTTTTCCCGGTAATCCGTATTTGTG (site GTAGGCTCTCA)”, the “recombinant UMI read abundance (log10)” value was found to be 1.4.

Regarding “GTAGGGGCATGGACCGGTTTTCCCGGTAATCCGTATTTGAA (site GTAGGGGCTTT)”, the “recombinant UMI read abundance (log10)” value was 1.18. As to “GTAGTCCCATGGACCGGTTTTCCCGGTAATCCGTATTTGCG (site GTAGTCACTCG)”, the “recombinant UMI read abundance (log10)” value amounted to 0.251. Under “GTAGTCCCATGGACCGGTTTTCCCGGTAATCCGTATTTGCG (site GTAGTCCCTCG)” stands 0.791; under “GTAGTCCCATGGACCGGTTTTCCCGGTAATCCGTATTTGCG (site GTAGTCGCTCG)”, 0.16; under “GTAGTCCCATGGACCGGTTTTCCCGGTAATCCGTATTTGCG (site GTAGTCTCTCG)”, 2.33. Regarding “GTAGTCCCATGGACCGGTTTTCCCGGTAATCCGTATTTGGT (site GTAGTCCCTAC)”, the “recombinant UMI read abundance (log10)” value was determined as 0.588.

Turning to “GTAGTCGCATGGACCGGTTTTCCCGGTAATCCGTATTTGCT (site GTAGTCGCTAG)”, the “recombinant UMI read abundance (log10)” value was 2.87. In the case of “GTAGTCGCATGGACCGGTTTTCCCGGTAATCCGTATTTGCT (site GTAGTCGCTCG)”, the “recombinant UMI read abundance (log10)” value is 1.77. Regarding “GTAGTCGCATGGACCGGTTTTCCCGGTAATCCGTATTTGCT (site GTAGTCGCTGG)”, the “recombinant UMI read abundance (log10)” value was 2.09. Consider “GTAGTCGCATGGACCGGTTTTCCCGGTAATCCGTATTTGCT (site GTAGTCGCTTG)”, for which the “recombinant UMI read abundance (log10)” value was found to be 1.57. Take “GTAGTCGCATGGACCGGTTTTCCCGGTAATCCGTATTTGGG (site GTAGTCGCTCA)”: the “recombinant UMI read abundance (log10)” value amounted to 0.214. In the case of “GTAGTCGCATGGACCGGTTTTCCCGGTAATCCGTATTTGGG (site GTAGTCGCTCC)”, the “recombinant UMI read abundance (log10)” value was 0.132. Under “GTAGTCGCATGGACCGGTTTTCCCGGTAATCCGTATTTGGG (site GTAGTCGCTCG)” stands 0.0493; under “GTAGTCGCATGGACCGGTTTTCCCGGTAATCCGTATTTGGG (site GTAGTCGCTCT)”, 0.661; under “GTAGTTACATGGACCGGTTTTCCCGGTAATCCGTATTTGAC (site GTAGATACTGT)”, 2.18.

Take “GTAGTTACATGGACCGGTTTTCCCGGTAATCCGTATTTGAC (site GTAGCTACTGT)”: the “recombinant UMI read abundance (log10)” value turned out to be 1.23. The same measure for “GTAGTTACATGGACCGGTTTTCCCGGTAATCCGTATTTGAC (site GTAGGTACTGT)”: 0.575.

Regarding “GTAGTTACATGGACCGGTTTTCCCGGTAATCCGTATTTGAC (site GTAGTTACTGT)”, the “recombinant UMI read abundance (log10)” value is 2.74.

For the sequence “GTAGTTCCATGGACCGGTTTTCCCGGTAATCCGTATTTGGT (site GTAGTTCCTAC)”, the “recombinant UMI read abundance (log10)” value was found to be 0.849. In the case of “GTAGTTCCATGGACCGGTTTTCCCGGTAATCCGTATTTGGT (site GTCGTTCCTAC)”, the “recombinant UMI read abundance (log10)” value came to 0. As for “GTAGTTCCATGGACCGGTTTTCCCGGTAATCCGTATTTGGT (site GTGGTTCCTAC)”, the “recombinant UMI read abundance (log10)” value came to 0.00522. Turning to “GTAGTTCCATGGACCGGTTTTCCCGGTAATCCGTATTTGGT (site GTTGTTCCTAC)”, the “recombinant UMI read abundance (log10)” value came out at 0.00774. On to “GTATCAGCATGGACCGGTTTTCCCGGTAATCCGTATTTGTC (site GTATCAGCTGA)”, for which the “recombinant UMI read abundance (log10)” value stood at 3.03. For “GTATCTACATGGACCGGTTTTCCCGGTAATCCGTATTTGCT (site GTATCTACTAG)”, the “recombinant UMI read abundance (log10)” value worked out at 1.66.

For “GTATCTCCATGGACCGGTTTTCCCGGTAATCCGTATTTGTA (site GTATCTCCTTA)”, the “recombinant UMI read abundance (log10)” value was found to be 0.705. Under “GTATGCACATGGACCGGTTTTCCCGGTAATCCGTATTTGTC (site GTATGCACTAA)” stands 0.663; under “GTATGCACATGGACCGGTTTTCCCGGTAATCCGTATTTGTC (site GTATGCACTCA)”, 0.0163; under “GTATGCACATGGACCGGTTTTCCCGGTAATCCGTATTTGTC (site GTATGCACTGA)”, 3.13.

Regarding “GTATGCACATGGACCGGTTTTCCCGGTAATCCGTATTTGTC (site GTATGCACTTA)”, the “recombinant UMI read abundance (log10)” value was determined as 1.33.

For “GTATGCACATGGACCGGTTTTCCCGGTAATCCGTATTTGTT (site GTATGCACTAA)”, the “recombinant UMI read abundance (log10)” value was found to be 1.32. “GTATGCACATGGACCGGTTTTCCCGGTAATCCGTATTTGTT (site GTATGCACTCA)”: the “recombinant UMI read abundance (log10)” value was determined as 0.25. Take “GTATGCACATGGACCGGTTTTCCCGGTAATCCGTATTTGTT (site GTATGCACTGA)”: the “recombinant UMI read abundance (log10)” value amounted to 1.66. With “GTATGCACATGGACCGGTTTTCCCGGTAATCCGTATTTGTT (site GTATGCACTTA)”, the “recombinant UMI read abundance (log10)” value is 0.606. With “GTATGTACATGGACCGGTTTTCCCGGTAATCCGTATTTGAC (site GTAAGTACTGT)”, the “recombinant UMI read abundance (log10)” value turned out to be 0.262. Turning to “GTATGTACATGGACCGGTTTTCCCGGTAATCCGTATTTGAC (site GTACGTACTGT)”, the “recombinant UMI read abundance (log10)” value was determined as 2.5. Turning to “GTATGTACATGGACCGGTTTTCCCGGTAATCCGTATTTGAC (site GTAGGTACTGT)”, the “recombinant UMI read abundance (log10)” value was determined as 0.95. As for “GTATGTACATGGACCGGTTTTCCCGGTAATCCGTATTTGAC (site GTATGTACTGT)”, the “recombinant UMI read abundance (log10)” value is 2.9.

For the origin of these results see the supplement of paper PMC11208160.
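Also: IS621 bridge recombinase in Escherichia coli cells against a fixed T5 target plasmid.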
